Patent US5750754A, “Heterocyclic compounds” (Zeneca Limited, priority 1993, dated 1998)
Counter-ions that a name gives are not always drawn.

The compounds below were run against T1, human, citrated, platelet-rich plasma (Homo sapiens, UniProt P05106+P08514) (assay: Test (a): inhibition of ADP stimulated platelet aggregation (Born)). Conditions: ADP induced aggregation of human platelet-rich plasma.
T1 construct: aggregating human, citrated, platelet-rich plasma; endogenous in cells; host or cells: human platelets in citrated platelet-rich plasma
T1 sequence (P08514 32-887 limits assumed): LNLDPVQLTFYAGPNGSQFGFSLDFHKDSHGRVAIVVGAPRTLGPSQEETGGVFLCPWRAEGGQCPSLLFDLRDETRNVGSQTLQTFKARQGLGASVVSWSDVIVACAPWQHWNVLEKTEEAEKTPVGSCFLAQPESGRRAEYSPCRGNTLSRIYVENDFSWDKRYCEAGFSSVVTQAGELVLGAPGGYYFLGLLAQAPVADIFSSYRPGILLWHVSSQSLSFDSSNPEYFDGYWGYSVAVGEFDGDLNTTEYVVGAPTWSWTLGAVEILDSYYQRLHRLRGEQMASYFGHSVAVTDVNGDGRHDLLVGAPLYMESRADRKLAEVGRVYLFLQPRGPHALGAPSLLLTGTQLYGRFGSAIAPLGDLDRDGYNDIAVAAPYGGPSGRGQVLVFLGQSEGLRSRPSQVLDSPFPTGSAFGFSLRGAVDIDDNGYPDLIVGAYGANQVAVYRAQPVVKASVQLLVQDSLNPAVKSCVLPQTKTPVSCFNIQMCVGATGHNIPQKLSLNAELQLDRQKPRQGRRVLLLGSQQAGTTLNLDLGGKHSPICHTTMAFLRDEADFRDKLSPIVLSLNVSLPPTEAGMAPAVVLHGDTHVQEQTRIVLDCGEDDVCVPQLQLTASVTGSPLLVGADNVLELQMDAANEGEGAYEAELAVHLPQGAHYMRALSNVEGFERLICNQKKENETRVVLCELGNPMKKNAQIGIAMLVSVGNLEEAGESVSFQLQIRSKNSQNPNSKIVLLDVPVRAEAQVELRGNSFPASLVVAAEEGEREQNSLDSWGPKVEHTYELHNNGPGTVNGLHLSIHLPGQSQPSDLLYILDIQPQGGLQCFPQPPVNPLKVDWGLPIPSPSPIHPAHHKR
T1 sequence (P08514 891-1039 limits assumed): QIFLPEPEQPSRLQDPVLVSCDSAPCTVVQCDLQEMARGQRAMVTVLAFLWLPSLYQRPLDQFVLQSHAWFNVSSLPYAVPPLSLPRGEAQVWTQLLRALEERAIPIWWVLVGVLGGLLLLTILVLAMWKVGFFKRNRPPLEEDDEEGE
T1 sequence (P05106 27-788): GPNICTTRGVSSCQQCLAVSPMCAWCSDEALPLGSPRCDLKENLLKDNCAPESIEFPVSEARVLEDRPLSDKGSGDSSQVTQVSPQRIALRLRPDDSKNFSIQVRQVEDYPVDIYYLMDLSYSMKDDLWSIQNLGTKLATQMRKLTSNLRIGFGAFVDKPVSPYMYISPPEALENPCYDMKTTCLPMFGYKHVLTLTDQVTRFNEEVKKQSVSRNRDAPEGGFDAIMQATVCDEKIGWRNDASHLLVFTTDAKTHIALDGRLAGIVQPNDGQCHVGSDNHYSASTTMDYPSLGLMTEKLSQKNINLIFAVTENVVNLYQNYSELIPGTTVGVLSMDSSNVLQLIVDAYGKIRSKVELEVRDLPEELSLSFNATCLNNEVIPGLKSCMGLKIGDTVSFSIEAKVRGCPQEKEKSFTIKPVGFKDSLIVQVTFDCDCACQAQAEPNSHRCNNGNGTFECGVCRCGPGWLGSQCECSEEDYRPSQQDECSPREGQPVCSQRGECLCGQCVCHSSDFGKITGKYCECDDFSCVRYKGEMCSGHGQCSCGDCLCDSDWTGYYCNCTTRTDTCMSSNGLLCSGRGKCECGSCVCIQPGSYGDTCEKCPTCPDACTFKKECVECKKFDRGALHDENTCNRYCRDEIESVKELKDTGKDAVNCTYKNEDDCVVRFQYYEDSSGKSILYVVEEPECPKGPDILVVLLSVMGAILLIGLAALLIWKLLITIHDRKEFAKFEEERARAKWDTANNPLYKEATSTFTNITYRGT
Format: cell-based
Source text: (i) aggregating human, citrated, platelet-rich plasma by addition of adenosine diphosphate so as to generate a dose-response curve;
(ii) generating a dose-response curve for ADP stimulated platelet aggregation in the presence of increasing amounts of a test compound (generally in the range 10-^5 M to 10-^10 M); and
(iii) calculating a pA2 value indicating potency of platelet aggregation inhibition for the test compound, averaged over several concentrations, from the calculated 50% response value for ADP aggregation in the presence and absence of the test compound.

Test (a): pA2 value indicating potency of platelet aggregation inhibition	Compound
6.0	O=C(O)CCCCCOc1ccc(Nc2ccncc2)cc1 [Example 188, 6-[4-(4-Pridylamino)phenoxy]hexanoic acid hydrochloride]

Same assay, conditions: ADP induced aggregation of human platelet-rich plasma; read-out: Test (a): pA2 value indicating potency of platelet aggregation inhibition (converted)

Compound	Kb [nM]
CC(C)(C)OC(=O)NC(CCOc1ccc(N2CCN(c3ccncc3)CC2)cc1)C(=O)O (racemic) [Example 212, RS 2-t-Butoxycarbonylamino-4-[4-[4-(4-pyridyl)piperazin-1-yl]phenoxy]butyric acid]	79.4
O=C(O)CCCc1ccc(CN2CCN(c3ccncc3)CC2)cc1 [Example 180, 4-[4-[4-(4-Pyridyl)piperazin-1yl]methylphenyl]butyric acid, dihydrochloride]	3160
CCOC(=O)CCCCCOc1ccc(Nc2ccncc2)cc1 [Example 187, Ethyl 6-[4-(4-pyridylamino)phenoxy]hexanoate]	15800
C=CCc1cc(N2CCN(c3ccncc3)CC2)ccc1OCCCC(=O)OCC [Example 205, Ethyl 4-[2-allyl-4-[4-(4-pyridyl)piperazin-1-yl]phenoxy]butyrate]	251
CCOC(=O)CCCOc1ccc(N2CCN(c3ccncc3)CC2)cc1C [Example 209, Ethyl 4-[2-methyl-4-[4-(4-pyridyl)piperazin-1-yl]phenoxy]butyrate]	200
CCOC(=O)COc1ccc(C(=O)CN2CCN(c3ccncc3)CC2=O)cc1 [Example 215, Ethyl 4-[2-[4-(4-pyridyl)piperazin-2-one-1-yl]acetyl]phenoxyacetate]	126
CCOC(=O)CNC(=O)COc1ccc(C(=O)CN2CCN(c3ccncc3)CC2=O)cc1 [Example 216, Ethyl N 4-[2-(4-(4-pyridyl)piperazin-2-one-1-yl)acetyl]phenoxyacetylglycinate]	2000
CCOC(=O)CCCOc1ccc(N2CCN(c3ccncc3)CC2)cc1[N+](=O)[O-] [Example 217, Ethyl 4-[2-nitro-4-[4-(4-pyridyl)piperazin-1-yl]phenoxy]butyrate]	316
CN(C)c1ccncc1CCCOc1ccc(C[C@H](NC(=O)OCc2ccccc2)C(=O)O)cc1 [Example 225]	158

Results, then the compound that gave them:

Kb [nM]	Compound
1000	CCCCS(=O)(=O)NC(CCOc1ccc(N2CCN(c3ccncc3)CC2)cc1)C(=O)OC (racemic) [Example 218, RS Methyl 2-n-butanesulphonylamino-4-[4-[4-(4-pyridyl)piperazin-1-yl]phenoxy]butyrate]
31.6	CCCCS(=O)(=O)NC(CCOc1ccc(N2CCN(c3ccncc3)CC2)cc1)C(=O)O (racemic) [Example 219, RS 2-n-Butanesulphonylamino-4-[4-[4-(4-pyridyl)piperazin-1-yl]phenoxy]butyricacid]
3160	O=C(O)CC(COc1ccc(N2CCN(c3ccncc3)CC2)cc1)Cc1ccccc1 (racemic) [Example 220, RS 3-Benzyl-4-[4-[4-(4-pyridyl)piperazin-1-yl]phenoxy]-butyric acid]
158	O=C(O)CC(COc1ccc(N2CCN(c3ccncc3)CC2)cc1)c1ccccc1 (racemic) [Example 221, RS 3-Phenyl-4-[4-[4-(4-pyridyl)piperazin-1-yl]phenoxy]-butyric acid]
501	O=C(O)CCC(=O)Nc1ccc(N2CCN(c3ccncc3)CC2)cc1 [Example 199, 4-Oxo-4-[4-[4-(4-pyridyl)piperazine-1-yl]phenyl]aminobutyric acid]
316	CCCc1cc(N2CCN(c3ccncc3)CC2)ccc1OCCCC(=O)O [Example 208, 4-[2-n-Propyl4-[4-(4-pyridyl)piperazin-1-yl]phenoxy]butyric acid]
316	Cc1cc(N2CCN(c3ccncc3)CC2)ccc1OCCCC(=O)O [Example 210, 4-[2-Methyl-4-[4-(4-pyridyl)piperazin-1-yl]phenoxy]-butyric acid]
31600	COC(=O)c1ccc(Oc2ccc(N3CCN(c4ccncc4)CC3)cc2)nc1 [Example 232, Methyl 6-[4-[4-(4-pyridyl)piperazin-1-yl]phenoxy]pyridine-3-carbxylate]
